One data set can be described thus: Antioxidant activity assessed as DPPH free radical scavenging activity at 0.01 to 1 mM after 30 mins. As to conditions: 0.5 h, 1000 µM; call rule not given here. The data set is classed as physicochemical. In general terms: The DPPH test is a chemical assay of radical scavenging.
In the case of `Cc1ccc(O)c(C(=O)O)c1`, the outcome was Active.
Turning to `O=C(O)c1cc([N+](=O)[O-])ccc1O`, the result was Active.
As for `NC(=O)c1cc(O)ccc1O`, the result was Active.
Same read-out and setting: under `COc1ccc(O)c(C(=O)O)c1` stands “Active”.
As to `O=C(O)c1cc(Cl)ccc1O` [5-CHLOROSALICYLIC ACID], the outcome was Active.
The same measure, in the same setting: under `O=C(O)c1cc(O)ccc1O` [GENTISIC ACID] stands “Active”.
In the case of `Nc1ccc(O)c(C(=O)O)c1` [MESALAMINE], the result was Active.
In the case of `COC(=O)c1cc(O)ccc1O` [METHYL 2,5-DIHYDROXYBENZOATE], the result was Active.
Still for that read-out and setting: under `O=C(O)c1ccccc1O` [SALICYLIC ACID] stands “Active”.

Another data set can be described thus: Antioxidant activity assessed as DPPH free radical scavenging activity at 1 mM after 30 mins. The data set is classed as physicochemical. The following applies: 0.5 h, 1000 µM.
In the case of `CC(=O)Nc1ccc(O)c(C(N)=O)c1`, the outcome was Active.

The record behind these values is ChEMBL document CHEMBL3627599, “The antioxidant properties of salicylate derivatives: A possible new mechanism of anti-inflammatory activity” (Bioorg Med Chem Lett, 2015).
